Source: patent publication US20180369258A1, “ANTI-BACTERIAL COMPOUNDS BASED ON AMINO-GOLD PHOSPHINE COMPLEXES” (priority 2015, published 2018)

How the values were obtained:
Format in all cases: cell-based
[1] = tested on: S. aureus (Oxford strain); test: Growth assay for S. aureus (MIC); details: background statement for auranofin
Experimental: Stock solution of the test compounds (20 mg/ml) in dimethyl sulfoxide (DMSO) were serially diluted in DMSO and each diluted compound added in duplicate to a 96-well plate to a final DMSO concentration of 2% (v/v). An overnight culture of S. aureus (Oxford strain) grown in tryptic soy broth (TSB) was diluted to approximately 5×10^7 cfu/ml and 150 μl of this sample was added to each well of the 96-well plates. Control wells included an ‘untreated’ control with bacteria in TSB in the presence of 2% DMSO and a negative sample (containing 150 μl TSB growth media in the presence of 2% DMSO). Plates were incubated in a shaking incubator at 37° C. for 22-24 hours and bacterial growth assessed by absorbance at a wavelength of 595 nm. The minimum inhibitory concentration (MIC) was defined as the lowest concentration of compound that inhibited growth compared to the no-treatment control.

[2] = tested on: V. cholerae; test: In vitro growth inhibition of V. cholerae (MIC); details: background statement for auranofin
[3] = tested on: K. pneumoniae 13368; test: Disk diffusion assay, multidrug resistant clinical isolate
Experimental: (§1) The activity of test compounds against multi-drug resistant bacterial strains was assessed by the disk diffusion assay; a standardised method to assess for the antimicrobial susceptibility of microorganisms (adapted from EUCAST, Version 5, January 2015). In brief, bacterial cultures were suspended in phosphate buffer and spread evenly onto blood agar plates. Cellulose disks (5 mm) were placed onto the agar plates and 3 μl test compound (60 μg/disk) were pipetted to the centre. A panel of standard antibiotics disks (Sigma) were used to control for the antimicrobial resistance profile of the individual strains (quantity as indicated in the table). The plates were then placed into a thermo-incubator and were cultured at 37° C. over-night. Activity was recorded by measuring the zone of clearance (mm) around the disks.

[4] = tested on: E. faecalis DSM13591; test: as above
Experimental: as §1

[5] = tested on: A. baumannii NC13421; test: as above
Experimental: as §1

[6] = tested on: E. coli 13400; test: as above
Experimental: as §1

[7] = tested on: human hepatocyte cell line (HepG2); test: HepG2 cell inhibition assay (CCK-8 viability); details: 50% growth inhibition vs untreated control, 24 hours
Experimental: Cell counting kit-8 (Sigma, CCK-8) assays were performed to assess the effect of compounds on cell viability. The assay is based on the reduction of a water-soluble tetrazolium salt (WST-8) by cellular dehydrogenases to a formazan dye which can be detected spectroscopically. 96-well plates were seeded with the human hepatocyte cell line (HepG2) at approximately 8×10^3 cells per well in Eagle's Minimum Essential Medium (EMEM) with Earle's salts and sodium bicarbonate supplemented with 10% heat-inactivated foetal bovine serum 2 mM glutamine and 1% non-essential amino acids (NEAA). The following day serial dilutions of compounds (dissolved and diluted in DMSO) were added to the cells in duplicates. Control wells included an ‘untreated’ control where cells were grown in the presence of 1% DMSO and a ‘medium only’ control (plus 1% DMSO). After 24 hours CCK-8 reagent (10 μl) was added to each well and cell viability was assessed by measuring the absorbance at a wavelength of 450 nm after 2-3 h hours. Only living cells can reduce the tetrazolium salts into coloured formazan products. Results were expressed as 50% growth inhibition (TD50) values compared to ‘untreated’ control.

| Compound | HepG2 cell TD50 [7] | further results |
| --- | --- | --- |
| CC(=O)OC[C@H]1O[C@@H]([S-])[C@H](OC(C)=O)[C@@H](OC(C)=O)[C@@H]1OC(C)=O.CCP(CC)CC.[Au+] [Auranofin] | – | MIC, in vitro growth of S. aureus (Oxford strain) [1]: 0.6 to 0.9 µg/mL; MIC, in vitro growth of V. cholerae [2]: 2.5 µg/mL |
| CO/N=C(\C(=O)N[C@@H]1C(=O)N2C(C(=O)O)=C(COC(C)=O)CS[C@H]12)c1csc(N)n1 [Cefotaxime] | – | Size of Clearance of Zone ([3]; antibiotic disk 30 μg): R; Size of Clearance of Zone ([4]; antibiotic disk 30 μg): R; Size of Clearance of Zone ([5]; antibiotic disk 30 μg): R; Size of Clearance of Zone ([6]; antibiotic disk 30 μg): 18 mm |
| CO/N=C(\C(=O)N[C@@H]1C(=O)N2C(C(=O)O)=C(CSc3nc(=O)c(=O)[nH]n3C)CS[C@H]12)c1csc(N)n1 [Ceftriaxone] | – | Size of Clearance of Zone ([3]; antibiotic disk 30 μg): R; Size of Clearance of Zone ([4]; antibiotic disk 30 μg): R; Size of Clearance of Zone ([5]; antibiotic disk 30 μg): R; Size of Clearance of Zone ([6]; antibiotic disk 30 μg): R |
| C[P](C)(C)=[Au][N]1CCOCC1=O [Compound 1] | 4 µg/mL | – |
| C[P](C)(C)=[Au][N]1CCCCC1=O [Compound 2] | 3 µg/mL | – |
| CC[P](CC)(CC)=[Au][N]1CCOCC1=O [Compound 3] | 6 µg/mL | – |
| CC[N]([Au]=[P](C)(C)C)C(C)=O [Compound 4] | 7 µg/mL | – |
| CN1CC[N]([Au]=[P](C)(C)C)C1=O [Compound 5] | 6 µg/mL | – |
| C[P](C)(C)=[Au][N]1CCN(c2ccccc2)C1=O [Compound 6] | 9 µg/mL | – |
| C[P](C)(C)=[Au][N]1C(=O)CCC1=O [Compound 7] | 11 µg/mL | – |
| C[P](C)(C)=[Au][N]1C(=O)COCC1=O [Compound 8] | 9 µg/mL | – |
| C[P](C)(C)=[Au][N]1CCOC1=O [Compound 9] | 7 µg/mL | – |
| C[P](C)(C)=[Au][N]1C(=O)c2ccccc2C1=O [Compound 10] | 15 µg/mL | – |
| CC[P](CC)(CC)=[Au][N]1C(=O)c2ccccc2C1=O [Compound 11] | 4 µg/mL | – |
| C[P](C)(C)=[Au][N]1C(=O)COc2ccccc21 [Compound 12] | 4 µg/mL | – |
| C[P](C)(C)=[Au][n]1ccccc1=O [Compound 13] | 3 µg/mL | – |
| C[P](C)(C)=[Au][N]1C(=O)CCCC1=O [Compound 14] | 7 µg/mL | – |
| C[P](C)(C)=[Au][N]1C(=O)C2CCCN2C1=O (stereo not shown) [Compound 15] | 3 µg/mL | – |
| CC1C(=O)[N]([Au]=[P](C)(C)C)C(=O)N1c1ccccc1 (stereo not shown) [Compound 16] | 10 µg/mL | – |
| CN1C(=O)[N]([Au]=[P](C)(C)C)C(=O)C1(C)C [Compound 17] | 8 µg/mL | – |
| C[P](C)(C)=[Au][N]1CCCOC1=O [Compound 18] | 5 µg/mL | – |
| CN1C(=O)[N]([Au]=[P](C)(C)C)C(=O)C12CCCC2 [Compound 19] | 13 µg/mL | – |
| C[P](C)(C)=[Au][N]1Cc2ccccc2C1=O [Compound 20] | 2 µg/mL | – |
| C[N]([Au]=[P](C)(C)C)S(C)(=O)=O [Compound 21] | 4 µg/mL | – |
| C[N]([Au]=[P](C)(C)C)S(=O)(=O)c1ccccc1 [Compound 24] | 5 µg/mL | – |
| C[P](C)(C)=[Au][n]1ccn(-c2ccccc2)c1=O [Compound 25] | 5 µg/mL | – |
| COc1ccc(N2CC[N]([Au]=[P](C)(C)C)C2=O)cc1 [Compound 26] | 6 µg/mL | – |

| Compound | HepG2 cell TD50 [7] | further results |
| --- | --- | --- |
| C[P](C)(C)=[Au][N]1CCN(c2ccc(F)cc2)C1=O [Compound 27] | 4 µg/mL | – |
| C[P](C)(C)=[Au][N]1CCCS1(=O)=O [Compound 28] | 9 µg/mL | – |
| C[P](C)(C)=[Au][N]1CCCCS1(=O)=O [Compound 29] | 3 µg/mL | – |
| CC1(C)OC(=O)[N]([Au]=[P](C)(C)C)C1=O [Compound 30] | 3 µg/mL | – |
| C[P](C)(C)=[Au][N]1CCCC1=O [Compound 31] | 3 µg/mL | – |
| C[P](C)(C)=[Au][n]1cccn1 [Compound 36] | 7.3 µg/mL | – |
| C[P](C)(C)=[Au][n]1ccnn1 [Compound 37] | 11.9 µg/mL | – |
| C[P](C)(C)=[Au][n]1cnnc1 [Compound 38] | 7 µg/mL | – |
| COc1ccc2c(c1)nc[n]2[Au]=[P](C)(C)C [Compound 39] | 9 µg/mL | – |
| C[P](C)(C)=[Au][n]1cnnn1 [Compound 40] | 6 µg/mL | – |
| C[P](C)(C)=[Au][n]1cc(C(F)(F)F)cn1 [Compound 41] | 16 µg/mL | – |
| C[P](C)(C)=[Au][n]1ncc2cccnc21 [Compound 42] | 5 µg/mL | – |
| C[P](C)(C)=[Au][n]1ccnc1 [Compound 43] | 4 µg/mL | – |
| C[P](C)(C)=[Au][n]1cnc2ccccc21 [Compound 44] | 5 µg/mL | – |
| Cc1nc2ccccc2[n]1[Au]=[P](C)(C)C [Compound 45] | 5 µg/mL | – |
| Cc1nnc(C)[n]1[Au]=[P](C)(C)C [Compound 46] | 5 µg/mL | – |
| Cc1ncc[n]1[Au]=[P](C)(C)C [Compound 47] | 3.9 µg/mL | – |
| C[P](C)(C)=[Au][n]1ccnc1C(F)(F)F [Compound 48] | 4 µg/mL | – |
| COc1ccc2c(cn[n]2[Au]=[P](C)(C)C)c1 [Compound 50] | 3 µg/mL | – |
| C[P](C)(C)=[Au][n]1cnc2cccnc21 [Compound 51] | 3 µg/mL | – |
| C[C@@H](O)[C@H]1C(=O)N2C(C(=O)O)=C(S[C@@H]3CN[C@H](C(=O)Nc4cccc(C(=O)O)c4)C3)[C@H](C)[C@H]12 [Ertapenem] | – | Size of Clearance of Zone ([3]; antibiotic disk 10 μg): R; Size of Clearance of Zone ([4]; antibiotic disk 10 μg): 14 mm; Size of Clearance of Zone ([5]; antibiotic disk 10 μg): R; Size of Clearance of Zone ([6]; antibiotic disk 10 μg): 30 mm |
| C[C@@H](O)[C@H]1C(=O)N2C(C(=O)O)=C(SCCN=CN)C[C@H]12 [Imipenem] | – | Size of Clearance of Zone ([3]; antibiotic disk 10 μg): 18 mm; Size of Clearance of Zone ([4]; antibiotic disk 10 μg): 26 mm; Size of Clearance of Zone ([5]; antibiotic disk 10 μg): R; Size of Clearance of Zone ([6]; antibiotic disk 10 μg): 29 mm |
| CC(=O)NC[C@H]1CN(c2ccc(N3CCOCC3)c(F)c2)C(=O)O1 [Linezolid] | – | Size of Clearance of Zone ([4]; antibiotic disk 10 μg): 22 mm |
| C[C@@H](O)[C@H]1C(=O)N2C(C(=O)O)=C(S[C@@H]3CN[C@H](C(=O)N(C)C)C3)[C@H](C)[C@H]12 [Meropenem] | – | Size of Clearance of Zone ([3]; antibiotic disk 10 μg): 22 mm; Size of Clearance of Zone ([4]; antibiotic disk 10 μg): 17 mm; Size of Clearance of Zone ([5]; antibiotic disk 10 μg): R |
| CN[C@H](CC(C)C)C(=O)N[C@H]1C(=O)N[C@@H](CC(N)=O)C(=O)N[C@H]2C(=O)N[C@H]3C(=O)N[C@H](C(=O)N[C@H](C(=O)O)c4cc(O)cc(O)c4-c4cc3ccc4O)[C@H](O)c3ccc(c(Cl)c3)Oc3cc2cc(c3O[C@@H]2O[C@H](CO)[C@@H](O)[C@H](O)[C@H]2O[C@H]2C[C@](C)(N)[C@H](O)[C@H](C)O2)Oc2ccc(cc2Cl)[C@H]1O [Vancomycin] | – | Size of Clearance of Zone ([4]; antibiotic disk 30 μg): R |
| Colistin | – | Size of Clearance of Zone ([3]; antibiotic disk 10 μg): 9.5 mm; Size of Clearance of Zone ([5]; antibiotic disk 10 μg): 11 mm; Size of Clearance of Zone ([6]; antibiotic disk 10 μg): 12 mm |
